The values below come from BindingDB's records for doi:10.1021/acs.jmedchem.9b00846 (2019).

Experiment [1] is described as follows: Binding affinity to cereblon in human RV4:11/IRMI-2 cells harboring p53 hotspot mutation Y236H/R249G assessed as cell growth inhibition measured after 4 days.
A short description of experiment [2]: Binding affinity to cereblon in human RV4:11 cells expressing wild type p53 assessed as reduction in cell growth inhibition measured after 4 days in presence of 100 uM lenalidomide.
Experiment [3] is described as follows: Binding affinity to cereblon in human RV4:11 cells expressing wild type p53 assessed as reduction in cell growth inhibition measured after 4 days in presence of 30 uM lenalidomide.
Experiment [4] can be described thus: Binding affinity to cereblon in human RV4:11/IRMI-2 cells harboring p53 hotspot mutation Y236H/R249G assessed as reduction in cell growth inhibition measured after 4 days in presence of 100 uM lenalidomide.
Experiment [5] is described as follows: Binding affinity to cereblon in human MDA-MB-468 cells assessed as reduction in cell growth inhibition measured after 4 days in presence of 10 uM lenalidomide.
Experiment [6] is described as follows: Binding affinity to cereblon in human MDA-MB-468 cells assessed as reduction in cell growth inhibition measured after 4 days in presence of 100 uM lenalidomide.
A short description of experiment [7]: Binding affinity to cereblon in human MDA-MB-231 cells assessed as reduction in cell growth inhibition measured after 4 days in presence of 10 uM of lenalidomide.
Experiment [8] in a line: Binding affinity to cereblon in human MDA-MB-231 cells assessed as reduction in cell growth inhibition measured after 4 days in presence of 100 uM of lenalidomide.
Experiment [9] is described as follows: Binding affinity to cereblon in human RV4:11 cells expressing wild type p53 assessed as reduction in cell growth inhibition measured after 4 days in presence of 10 uM lenalidomide.
Experiment [10] can be described thus: Binding affinity to cereblon in human MDA-MB-468 cells assessed as reduction in cell growth inhibition measured after 4 days in presence of 30 uM lenalidomide.
Experiment [11] in a line: Binding affinity to cereblon in human RV4:11/IRMI-2 cells harboring p53 hotspot mutation Y236H/R249G assessed as reduction in cell growth inhibition measured after 4 days in presence of 30 uM lenalidomide.
Experiment [12] can be described thus: Binding affinity to cereblon in human MDA-MB-231 cells assessed as reduction in cell growth inhibition measured after 4 days in presence of 30 uM of lenalidomide.
A short description of experiment [13]: Binding affinity to cereblon in human RV4:11 cells expressing wild type p53 assessed as cell growth inhibition measured after 4 days.
Experiment [14] in a line: Binding affinity to cereblon in human RV4:11/IRMI-2 cells harboring p53 hotspot mutation Y236H/R249G assessed as reduction in cell growth inhibition measured after 4 days in presence of 10 uM lenalidomide.
Experiment [15] is described as follows: Binding affinity to cereblon in human MDA-MB-468 cells assessed as cell growth inhibition measured after 4 days.
Experiment [16] is described as follows: Binding affinity to cereblon in human MDA-MB-231 cells assessed as cell growth inhibition measured after 4 days.

The term IC50 denotes the concentration at which inhibition is half-maximal. For `O=C1CCC(N2Cc3c(CCCCCNC(=O)[C@@H]4NC5(CCCCC5)[C@@]5(C(=O)Nc6cc(Cl)ccc65)[C@H]4c4cccc(Cl)c4F)cccc3C2=O)C(=O)N1` (stereo partly specified), the IC50 in [1] was 0.0031 µM; in experiment [2], 0.496 µM; in experiment [3], 0.211 µM; in experiment [4], 0.982 µM; in experiment [5], 0.419 µM; in experiment [6] it was 2.07 µM. For the same molecule, the IC50 was 0.623 µM in experiment [7]; 2.14 µM in [8]; 0.096 µM in [9]; 0.964 µM in [10]; 0.4 µM in [11]; 1.37 µM in [12]. For the same molecule, the IC50 in experiment [13] is 0.002 µM; in [14], 0.168 µM.

`O=C1CCC(N2Cc3c(CCCCCNC(=O)c4ccc(NC(=O)[C@@H]5NC6(CCCCC6)[C@@]6(C(=O)Nc7cc(Cl)ccc76)[C@H]5c5cccc(Cl)c5F)cc4)cccc3C2=O)C(=O)N1` (stereo partly specified): the IC50 in [1] was above 10 µM; in experiment [15] it was above 10 µM; in [16] it was above 10 µM; in experiment [13], 0.0055 µM.

Turning to `CNC(=O)[C@@H]1NC2(CCCCC2)[C@@]2(C(=O)Nc3cc(Cl)ccc32)[C@H]1c1cccc(Cl)c1F` [US8629141, 21], the IC50 in experiment [1], in experiment [15] and in experiment [16] was above 10 µM each time.
